Results on 18 molecules are retold here after US7585875B2, “Substituted pyrazolo[1,5-a]pyridine compounds and their methods of use” (Avigen, Inc., priority 2006, dated 2009).

SMILES strings stand for the structures. Where two headings read alike, the source gives them in different places.

What is called IC50 is the concentration needed to halve the response being measured. Usually melting point stands for the temperature of the solid-liquid transition.

Data set [1] addresses phosphodiesterase (PDE) enzyme derived from bovine brain. Briefly: Inhibition of PDE (PDELight kit, cAMP substrate). The settings on record: PDE from brain extract, cAMP as substrate. In kind it is biochemical. The protocol:
In a 96-well plate, phosphodiesterase (PDE) enzyme (0.5-1 mU/well) derived from bovine brain (Sigma) was combined with 5 uM cAMP substrate (Sigma). Test compounds (0-200 uM) or vehicle (0.5% DMSO) were added to the enzyme/substrate and incubated for 1 hour. Using a PDELight® kit (Cambrex), the amount of AMP produced in the reaction from the hydrolysis of cAMP was quantified using PDELight AMP Detection Reagent which converts the AMP directly to ATP. The assay uses luciferase, which catalyses the formation of light from the newly formed ATP and luciferin. The luminescence was read on a Victor Light 1420 luminometer. IC50 calculations were plotted using a nonlinear regression curve fit.

The test system of data set [2] is mechanical allodynia after chronic constriction injury (CCI) to the sciatic nerve. Briefly: Mechanical allodynia by response to von Frey fibers, rat chronic constriction injury (CCI) model. In kind it is in vivo, male Sprague-Dawley rats. The settings on record: 2 hr post dosing. The source says:
Chronic Constriction Injury: Heat and cold allodynia responses as well as mechanical allodynia sensations can be evaluated as described below in rats having a chronic constriction injury (CCI). A unilateral mononeuropathy is produced in rats using the chronic constriction injury model described in Bennett et al., Pain (1988) 33:87-107. CCI is produced in anesthetized rats as follows. The lateral aspect of each rat's hind limb is shaved and scrubbed with Nolvasan. Using aseptic techniques, an incision is made on the lateral aspect of the hind limb at the mid-thigh level. The biceps femoris is bluntly dissected to expose the sciatic nerve. On the right hind limb of each rat, four loosely tied ligatures (for example, Chromic gut 4.0; Ethicon, Johnson and Johnson, Somerville, N.J.) are made around the sciatic nerve approximately 1-2 mm apart. On the left side of each rat, an identical dissection is performed except that the sciatic nerve is not ligated (sham). The muscle is closed with a continuous suture pattern with, e.g., 4-0 Vicryl (Johnson and Johnson, Somerville, N.J.) and the overlying skin is closed with wound clips. The rats are ear-tagged for identification purposes and returned to animal housing.
To induce allodynia, male Sprague-Dawley rats underwent chronic constriction injury (CCI) to the sciatic nerve as described by Bennett and Xie, Pain 1988; 33(1):87-107. The plantar surface of the hind paws was stimulated with von Frey filaments (Stoelting) to induce a withdrawal response by blinded personnel. The bending force of fiber required to induce a 50% withdrawal response was calculated following CCI surgery (pre-dosing baseline). N=5-6 allodynic rats received a single intraperitoneal administration of test compound or vehicle. Two hours post-dosing, 50% paw withdrawal threshold was determined again by blinded testers using von Frey filaments. The change in 50% withdrawal threshold relative to pre-dosing baseline is reported in Table 2 for various substituted pyrazolo[1,5-a]pyridine compounds of the invention.

In data set [3] the test system is IL-1β production in LPS-stimulated human peripheral blood mononuclear cells. Briefly: Inhibition of LPS-stimulated IL-1β release from PBMCs. The format is cell-based. The settings on record: PBMC, LPS-stimulated cytokine release from PBMCs. The protocol:
(§1) IC50 values were determined for representative compounds of the invention based upon their ability to inhibit LPS-induced cytokine production in human peripheral blood mononuclear cells. Human PBMCs (peripheral blood mononuclear cells) were isolated over a Ficoll gradient from buffy coats obtained from the local Red Cross. 10^6 PBMC cells/well were seeded in 24-well tissue culture plates in RPMI 1640 medium supplemented with 10% human serum, hepes buffer and sodium pyruvate. The cells were treated with 0.1% DMSO (vehicle) or test compounds (1, 10, and 100 uM) 30 minutes prior to activation with LPS (lipopolysaccharide) (E. Coli) at 10 ng/mL. 6-10 hours post LPS stimulation the culture supernatants were collected and levels of cytokines TNF-α and IL-1β were quantified by ELISA (R&D Systems) and/or Luminex (Linco Diagnostics). IC50 calculations were plotted using a nonlinear regression curve fit for exemplary substituted pyrazolo[1,5-a]pyridine compounds of the invention; results are provided in Table 2.

Data set [4] has as its system TNF-α production in LPS-stimulated human peripheral blood mononuclear cells. Briefly: Inhibition of LPS-stimulated TNF-α release from PBMCs. In kind it is cell-based. The settings on record: PBMC. How it is done:
as §1

[5] abbreviates: LPS-stimulated cytokine release from PBMCs, read-out: TNF-α (IC50).
Setting [6] is: less than or equal to about 50 μM, PBMCs, read-out: IC50, LPS-induced cytokine production (cytokine not specified).

Turning to `CC(C)c1nn2ccccc2c1C(=O)C1CC1` [Compound 1046, cyclopropyl(2-isopropylpyrazolo[1,5-a]pyridin-3-yl)methanone], the melting point is 72 °C. The same molecule came in with an IC50 in data set [1] of 33.3 µM. Moreover, in data set [2] (10 mg/kg IP), the “Mechanical Allodynia ΔWT (change from pre-dosing 50% withdrawal threshold)” value stood at 0 grams.

Consider `CC(C)C(=O)c1c(-c2ccccc2)nn2ccccc12` [Compound 1015, 2-methyl-1-(2-phenylpyrazolo[1,5-a]pyridin-3-yl)propan-1-one], for which the IC50 in data set [3] is more than 100 µM; in data set [1], 80 µM; in data set [4] (setting [5]) it was more than 100 µM. Moreover, in data set [2] (10 mg/kg IP), the “Mechanical Allodynia ΔWT (change from pre-dosing 50% withdrawal threshold)” value is 0.51 grams.

For `COc1ccc(C(=O)c2c(C(C)C)nn3ccccc23)cc1` [Compound 1008, (2-isopropylpyrazolo[1,5-a]pyridin-3-yl)(4-methoxyphenyl)methanone], the IC50 in data set [3] was more than 100 µM; in data set [1], 5.8 µM; in data set [4] (setting [5]), 50 µM; in data set [4] (setting [6]), not above 50 µM. Further, the “Mechanical Allodynia ΔWT (change from pre-dosing 50% withdrawal threshold)” value in data set [2] (10 mg/kg IP) was 0.84 grams.

Molecule `CC(C)C(=O)c1c(C2CC2)nn2ccccc12` [compound 1050, 1-(2-cyclopropylpyrazolo[1,5-a]pyridin-3-yl)-2-methylpropan-1-one] showed a melting point of 108 to 109 °C. In addition, in data set [2] (10 mg/kg IP), the “Mechanical Allodynia ΔWT (change from pre-dosing 50% withdrawal threshold)” value amounted to 0 grams.

The molecule `CC(CN)C(=O)c1c(C(C)C)nn2ccccc12.Cl` (stereo not drawn) [compound 1065, 3-amino-1-(2-isopropylpyrazolo[1,5-a]pyridin-3-yl)-2-methylpropan-1-one hydrochloride] gave a melting point of 110 to 115 °C. Moreover, the “Mechanical Allodynia ΔWT (change from pre-dosing 50% withdrawal threshold)” value in data set [2] (10 mg/kg IP) is 0.91 grams.

Consider `CC(C)C(=O)c1c(C(C)C)nn2cc(O)ccc12` [compound 1006, 1-(6-hydroxy-2-isopropylpyrazolo[1,5-a]pyridin-3-yl)-2-methylpropan-1-one], for which the IC50 in data set [3] was 14.7 µM; in data set [1], 29.6 µM; in data set [4] (setting [5]) it was 1.3 µM; in data set [4] (setting [6]), not above 50 µM. Also, the “Mechanical Allodynia ΔWT (change from pre-dosing 50% withdrawal threshold)” value in data set [2] (10 mg/kg IP) stood at 0 grams.

On to `CC(C)C(=NOC(N)=O)c1c(C(C)C)nn2ccccc12` [compound 1014, 1-(2-isopropylpyrazolo[1,5-a]pyridin-3-yl)-2-methylpropan-1-one O-carbamoyl oxime], for which the IC50 in data set [3] is 1 µM; in data set [1] it was 100 µM; in data set [4] (setting [5]), 1.3 µM; in data set [4] (setting [6]), not above 50 µM. In addition, the “Mechanical Allodynia ΔWT (change from pre-dosing 50% withdrawal threshold)” value in data set [2] (10 mg/kg IP) is 10 mg/kg: 2.18 grams; in data set [2] (20 mg/kg IP), 20 mg/kg: 3.73 grams.

`CC(CN1CCCCC1)C(=O)c1c(C(C)C)nn2ccccc12.Cl` (stereo not drawn) [compound 1063, 1-(2-isopropylpyrazolo[1,5-a]pyridin-3-yl)-2-methyl-3-(piperidin-1-yl)propan-1-one hydrochloride] registered a melting point of 166 to 167 °C. In addition, the “Mechanical Allodynia ΔWT (change from pre-dosing 50% withdrawal threshold)” value in data set [2] (10 mg/kg IP) worked out at 0 grams.

Turning to `CC(N)C(=O)c1c(C(C)C)nn2ccccc12` (stereo not drawn) [compound 1013, 2-amino-1-(2-isopropylpyrazolo[1,5-a]pyridin-3-yl)propan-1-one], the IC50 in data set [3] was more than 100 µM; in data set [1], more than 200 µM; in data set [4] (setting [5]), 13.6 µM; in data set [4] (setting [6]), not above 50 µM. The “Mechanical Allodynia ΔWT (change from pre-dosing 50% withdrawal threshold)” value is 10 mg/kg: 1.04 grams in data set [2] (10 mg/kg IP), 20 mg/kg: 1.33 grams in data set [2] (20 mg/kg IP), 25 mg/kg PO: 1.39 grams in data set [2] (25 mg/kg PO) and 40 mg/kg: 3.16 grams in data set [2] (40 mg/kg IP).

Turning to `CC(C)C(=O)c1c(-c2ccc(F)cc2)nn2ccccc12` [Compound 1018, 1-(2-(4-fluorophenyl)pyrazolo[1,5-a]pyridin-3-yl)-2-methylpropan-1-one], the IC50 in data set [3] was more than 100 µM; in data set [1], more than 200 µM; in data set [4] (setting [5]) it was 32.7 µM; in data set [4] (setting [6]), not above 50 µM. Further, the “Mechanical Allodynia ΔWT (change from pre-dosing 50% withdrawal threshold)” value in data set [2] (10 mg/kg IP) came to 0 grams.

Turning to `CC(C)c1nn2ccccc2c1C(=O)c1ccc(Cl)cc1` [Compound 1007, (4-chlorophenyl)(2-isopropylpyrazolo[1,5-a]pyridin-3-yl)methanone], the IC50 in data set [3] was 29.7 µM; in data set [1], more than 200 µM; in data set [4] (setting [5]) it was 13 µM; in data set [4] (setting [6]), not above 50 µM. The “Mechanical Allodynia ΔWT (change from pre-dosing 50% withdrawal threshold)” value in data set [2] (10 mg/kg IP) was determined as 0.92 grams.

Turning to `CC(C)C(=NO)c1c(-c2ccccc2)nn2ccccc12` [Compound 1016, 2-methyl-1-(2-phenylpyrazolo[1,5-a]pyridin-3-yl)propan-1-one oxime], the IC50 is more than 100 µM in data set [3], 75 µM in data set [1] and more than 100 µM in data set [4] (setting [5]). Moreover, the “Mechanical Allodynia ΔWT (change from pre-dosing 50% withdrawal threshold)” value in data set [2] (10 mg/kg IP) was 0 grams.

Take `CC(C)C(=NO)c1c(C(C)C)nn2ccccc12` [Compound 1012, 1-(2-isopropylpyrazolo[1,5-a]pyridin-3-yl)-2-methylpropan-1-one oxime]: the IC50 is 99 µM in data set [3], 40 µM in data set [1] and more than 100 µM in data set [4] (setting [5]). Also, the “Mechanical Allodynia ΔWT (change from pre-dosing 50% withdrawal threshold)” value in data set [2] (10 mg/kg IP) is 1.56 grams.

Take `CC(C)C(=NO)c1c(-c2ccc(F)cc2)nn2ccccc12` [compound 1019, 1-(2-(4-fluorophenyl)pyrazolo[1,5-a]pyridin-3-yl)-2-methylpropan-1-one oxime]: the half-maximal inhibitory concentration (IC50) was more than 100 µM in data set [3], 40 µM in data set [1] and more than 100 µM in data set [4] (setting [5]). In data set [2] (10 mg/kg IP), the “Mechanical Allodynia ΔWT (change from pre-dosing 50% withdrawal threshold)” value stood at 1.4 grams.

As for `CC(C)c1nn2ccccc2c1C(=O)C(C)(C)O` [compound 1004, 2-hydroxy-1-(2-isopropylpyrazolo[1,5-a]pyridin-3-yl)-2-methylpropan-1-one], the IC50 in data set [3] is more than 100 µM; in data set [1], 12.6 µM; in data set [4] (setting [5]), 28.8 µM; in data set [4] (setting [6]), not above 50 µM. Also, the “Mechanical Allodynia ΔWT (change from pre-dosing 50% withdrawal threshold)” value in data set [2] (10 mg/kg IP) is on record as 0.48 grams.

Consider `CC(C)C(=O)c1c(C(C)C)nn2ccccc12` [compound 411, 3-isobutyryl-2-isopropylpyrazolo[1,5-a]pyridine, reference compound], for which the figures for the IC50 in data set [3], in data set [1] and in data set [4] (setting [5]) were 17.9 µM, 10.3 µM and 5 µM, respectively. Besides, the “Mechanical Allodynia ΔWT (change from pre-dosing 50% withdrawal threshold)” value in data set [2] (10 mg/kg IP) is listed as 2.31-3.53 grams.

As for `CC(CNCc1ccccc1)C(=O)c1c(C(C)C)nn2ccccc12.Cl` (stereo not drawn) [compound 1066, 3-(benzylamino)-1-(2-isopropylpyrazolo[1,5-a]pyridin-3-yl)-2-methylpropan-1-one hydrochloride], the melting point was 171 to 175 °C. The “Mechanical Allodynia ΔWT (change from pre-dosing 50% withdrawal threshold)” value in data set [2] (10 mg/kg IP) is listed as 0.1 grams.

Take `CC(C)c1nn2ccccc2c1C(=O)CN` [Compound 1009, 2-amino-1-(2-isopropylpyrazolo[1,5-a]pyridin-3-yl)ethanone]: the IC50 in data set [3] is 99 µM; in data set [1], more than 200 µM; in data set [4] (setting [5]), 25 µM; in data set [4] (setting [6]), not above 50 µM. Moreover, the “Mechanical Allodynia ΔWT (change from pre-dosing 50% withdrawal threshold)” value in data set [2] (10 mg/kg IP) was 1.15 grams.
